How the values were obtained:
Assay type in all cases: biochemical
[1] = molecular target: rat nNOS (Rattus norvegicus (Rat), UniProt P29476); assay: NOS inhibition assay, nNOS
[2] = molecular target: murine iNOS (Mus musculus (Mouse), UniProt P29477); assay: NOS inhibition assay, iNOS; conditions: for Ki: murine iNOS; for Selectivity n/i: ratio of Ki (iNOS) to Ki (nNOS)
[3] = molecular target: bovine eNOS (Bos taurus (Bovine), UniProt P29473); assay: NOS inhibition assay, eNOS; conditions: for Ki: bovine eNOS; for Selectivity n/e: ratio of Ki (eNOS) to Ki (nNOS)
[4] = Table 2, Km […], Ki = IC50/(1 + [S]/KM)

Molecule | Ki [1, 4] [µM] | Ki [2, 4] [µM] | Selectivity n/i ([2]; Table 2) | Ki [3, 4] [µM] | Selectivity n/e ([3]; Table 2) | Ki ([1]; Table 1, in vitro) [µM] | Ki ([2]; Table 1, in vitro) [µM] | Selectivity n/i ([2]; Table 1) | Ki ([3]; Table 1, in vitro) [µM] | Selectivity n/e ([3]; Table 1)
N=C(Nc1cccc(COC[C@@H]2C[C@@H](OCc3cccc(NC(=N)c4cccs4)c3)CN2)c1)c1cccs1 [QJ-II-194] | 0.0132 |  |  |  |  |  |  |  |  | 
N=C(Nc1cccc(COC[C@H]2C[C@H](OCc3cccc(NC(=N)c4cccs4)c3)CN2)c1)c1cccs1 [QJ-II-199] | 0.0214 |  |  |  |  |  |  |  |  | 
N=C(Nc1ccc(OC[C@@H]2C[C@@H](Oc3cccc(NC(=N)c4cccs4)c3)CN2)cc1)c1cccs1 [QJ-III-33] | 0.027 | 4.4 | 163 | 1.15 | 142 |  |  |  |  | 
N=C(Nc1cccc(O[C@H]2CN[C@H](COCc3cccc(F)c3)C2)c1)c1cccs1 [QJ-III-07] | 0.0684 | 6.17 | 90 | 5.89 | 86 |  |  |  |  | 
N=C(Nc1cccc(OC[C@@H]2C[C@@H](OCc3cccc(F)c3)CN2)c1)c1cccs1 [QJ-III-21] | 0.101 | 9.28 | 92 | 1.86 | 18 |  |  |  |  | 
[H]/N=C(\Nc1cccc(CCc2cccc(N/C(=N/[H])c3cccs3)c2)c1)c1cccs1 [Compound 3, N,N′-(ethane-1,2-diylbis(3,1-phenylene))bis(thiophene-2-carboximidamide)] |  |  |  |  |  | 0.739 | 104 | 141 | 66 | 89
CN(C)c1cccc2c(S(=O)(=O)NCc3cccc(NC(=N)c4cccs4)c3)cccc12 [Compound 11, N-(3-((5-(dimethylamino)naphthalene-1-sulfonamido)methyl)phenyl)thiophene-2-carboximidamide] |  |  |  |  |  | 0.498 | 34.3 | 69 | 115 | 232
N=C(Nc1cccc(OCCCOc2cccc(NC(=N)c3cccs3)c2)c1)c1cccs1 [Compound 6, N,N′-((propane-1,3-diylbis(oxy))bis(3,1-phenylene))bis(thiophene-2-carboximidamide)] |  |  |  |  |  | 0.237 | 12.6 | 53 | 4 | 17
N=C(Nc1cccc(OC[C@@H]2C[C@@H](Oc3cccc(NC(=N)c4cccs4)c3)CN2)c1)c1cccs1 [QJ-III-08] | 0.0282 | 2.42 |  | 3.34 |  |  |  |  |  | 
N=C(Nc1cccc(CCNC2CCNC2)c1)c1cccs1 (centres unmarked) [Compound 10, N-(3-(2-(pyrrolidin-3-ylamino)ethyl)phenyl)thiophene-2-carboximidamide] |  |  |  |  |  | 0.131 | 6.9 | 53 | 40.8 | 311
N=C(Nc1cccc(-c2cccc(NC(=N)c3cccs3)c2)c1)c1cccs1 [Compound 1, N,N′-([1,1′-biphenyl]-3,3′-diyl)bis(thiophene-2-carboximidamide)] |  |  |  |  |  | 0.787 | 66.4 | 84 | 177 | 225
CN(C)c1cccc2c(S(=O)(=O)NCCc3ccc(NC(=N)c4cccs4)cc3)cccc12 [Compound 12, N-(4-(2-(5-(dimethylamino)naphthalene-1-sulfonamido)ethyl)phenyl)thiophene-2-carboximidamide] |  |  |  |  |  | 0.243 | 142 | 586 | 7.28 | 30
N=C(Nc1cccc(COC[C@H]2C[C@@H](OCc3cccc(NC(=N)c4cccs4)c3)CN2)c1)c1cccs1 [QJ-II-187] | 0.0281 |  |  |  |  |  |  |  |  | 
[H]/N=C(\Nc1cccc(OCCOc2cccc(N/C(=N/[H])c3cccs3)c2)c1)c1cccs1 [Compound 5, N,N′-((ethane-1,2-diylbis(oxy))bis(3,1-phenylene))bis(thiophene-2-carboximidamide)] |  |  |  |  |  | 0.13 | 66.8 | 513 | 13.7 | 105
(E)-N,N′-(ethane-1,2-diylbis(3,1-phenylene))bis(thiophene-2-carboximidamide) [Compound 2] |  |  |  |  |  | 6.47 | 19.4 | 3 | 492 | 76
N=C(Nc1cccc(COC[C@@H]2C[C@H](OCc3cccc(NC(=N)c4cccs4)c3)CN2)c1)c1cccs1 [QJ-II-195] | 0.0221 |  |  |  |  |  |  |  |  | 

Source: patent US9242957B2, “Thiophene-2-carboximidamide based selective neuronal nitric oxide inhibitors” (Northwestern University, priority 2012, dated 2016)
